Columns and labels:
[1] = system: Red imported fire ant (Solenopsis invicta); test: Fire ant repellency, baited plates near mounds (Example 6); format: in vivo; conditions: separate trial; about 100 mg per plate, within 4 feet of mounds
Text: Formulation A was poured into a plastic spray bottle and was sprayed onto 20, eight inch paper plates, one squeeze of the pump trigger per plate. […] Ten treated plates were placed randomly on the ground on a farm in Sparks, Ga., USA and ten control (untreated) plates were placed on the ground about 3 feet from the treated plates. Ten treated plates were placed about 4 feet from active Red imported fire ant mounds and ten control plates were placed near the same mounds no closer than 3 feet from the treated plates. Each plate received approximately 15 mL of an aqueous 25% honey solution.
Fifty percent of the control plates had active fire ant feeding within 15 minutes and 100% of the control plates had active fire ant feeding within 30 minutes.

[2] = system: house flies (Musca domesticae); conditions: U.S. Pat. No. 6,958,146, 7,867,479 and 8,092,790; cited from earlier work
insects = conditions: Table 1 of U.S. Pat. No. 6,958,146, 7,867,479 and 8,092,790; cited from earlier work

COC(=O)c1ccccc1N [methyl anthranilate]
deterrence of fire ant feeding [1]: did not deter fire ants from feeding | house fly response [2]: repelled | insects on sticky traps (insects): quickly became covered with hundreds of insects

From US20200163334A1, “INSECT REPELLENT” (FMC Corporation, priority 2016, published 2020)
